This test concerns L1210 mouse leukemia cells. In words: Formation of colonies of L1210 leukemia cells in soft agar (cytotoxicity in vitro). It counts as cell-based. The note with it: for IC50: Mus musculus. The method, then: The cytostatic activity of the compounds according to the invention has been tested using L1210 mouse leukemia cells. Employed for this purpose was the formation of colonies of L1210 leukemia cells in agar plates. This method is used to detect the effect of the test substances on the growth behavior of the cells over 1 hour or over several generations. In this connection, with a cell cycle time of 10-12 hours about 14 consecutive generations are observed in the 7 days the test lasts. In this test, the substances having cytostatic activity according to the invention bring about a reduction in the number of colonies to be observed by comparison with an untreated control sample.
Procedure for determining the formation of colonies of L1210 leukemia cells in soft agar
500 leukemia cells per plate were incubated with various concentrations of the test substance at 37° C. for 1 hour. The cells were then washed twice with McCoy5A medium and finally, after addition of 0.3% agar, poured into Petri dishes. Controls were incubated only with fresh medium. In place of the incubation for one hour, in some cases various concentrations and test substances were mixed with the upper agar layer in order in this way to achieve continuous exposure of the cells throughout the incubation time. After the agar had solidified, the plates were incubated in an incubator at 37° C. for 7 days (5% by volume CO2, 95% relative humidity). The number of colonies which had been produced with a diameter of more than 60 μm was then counted. The results have been reported as the number of colonies in treated agar plates as a percentage of the untreated control. The IC50 was determined as a measure of the activity of the substance from the dose-effect plot obtained in this way. The results for the compounds described herein, by comparison with adriamycin, are compiled in Table 1.

Where [1] appears, read: 1 h incubation, then 7 days, L1210 colonies in agar.
Setting [2] is: continuous incubation, 7 days, L1210 colonies in agar.
Where [3] appears, read: 168 h, continuous incubation, 7 days, L1210 colonies in agar, read-out: IC50, continuous incubation.
Setting [4] is: 1 h incubation, then 7 days, L1210 colonies in agar, read-out: IC50, 1 h incubation.

Here are results for seven molecules from patent publication US5260425A, “Anthracycline derivatives having cytostatic activity” (priority 1988, dated 1993).

≈ marks a conversion by molar mass, not a printed value. Read-outs that look alike come from different tables or passages of the source.

`CC[C@@]1(O)C[C@H](O[C@H]2C[C@H](N(C)CC3CO3)[C@H](O)[C@H](C)O2)c2c(O)c3c(c(O)c2[C@H]1O)C(=O)c1cccc(O)c1C3=O` (single isomer, unassigned) [Compound 8a, 7-O-(3'-N-Glycidyl-3'-N-methyl-alpha-L-daunosaminyl)-β-rhodomycinone]: the “IC50, 1 h incubation” value under setting [1] stood at 3.4 ng/mL (≈ 0.00581 µM). In addition, under setting [2], the “IC50, continuous incubation” value worked out at 1 ng/mL (≈ 0.00171 µM).

Turning to `CC[C@@]1(O)C[C@H](O[C@H]2C[C@H](N(C)CC3CO3)[C@H](O)[C@H](C)O2)c2c(O)c3c(c(O)c2[C@H]1O)C(=O)c1cccc(O)c1C3=O` (single isomer, unassigned) [Compound 8b, 7-O-(3'-N-Glycidyl-3'-N-methyl-alpha-L-daunosaminyl)-β-rhodomycinone], the “IC50, 1 h incubation” value under setting [1] was determined as 10 ng/mL (≈ 0.0171 µM). In addition, under setting [2], the “IC50, continuous incubation” value was 3 ng/mL (≈ 0.00512 µM).

Usually IC50 stands for the concentration that gives 50% inhibition. Regarding `CC[C@@]1(O)C[C@H](O[C@H]2C[C@H](N(C)Cc3ccccn3)[C@H](O)[C@H](C)O2)c2c(O)c3c(c(O)c2[C@H]1O)C(=O)c1cccc(O)c1C3=O` [Compound 5, 7-O-(3'-N-Methyl-3'-N-(2-picolyl)-alpha-L-daunosaminyl)-β-rhodomycinone], the IC50 by setting is: under setting [3], 0.038 µg/mL (≈ 0.0612 µM); under setting [4], 0.24 µg/mL (≈ 0.387 µM).

With `CC[C@@]1(O)C[C@H](O[C@H]2C[C@H](N(C)Cc3cccs3)[C@H](O)[C@H](C)O2)c2c(O)c3c(c(O)c2[C@H]1O)C(=O)c1cccc(O)c1C3=O` [Compound 13, 7-O-(3'-N-Methyl-3'-N-(2-thenyl)-alpha-L-daunosaminyl)-β-rhodomycinone], the IC50 under setting [3] turned out to be 0.034 µg/mL (≈ 0.0543 µM) and the IC50 under setting [4] was found to be 0.38 µg/mL (≈ 0.607 µM).

Take `C=CCN(C)[C@H]1C[C@H](O[C@H]2C[C@](O)(C(C)=O)Cc3c(O)c4c(c(O)c32)C(=O)c2c(OC)cccc2C4=O)O[C@@H](C)[C@H]1O` [Compound 15, 7-O-(3'-N-Allyl-3'-N-methyl-alpha-L-daunosaminyl)-daunomycinone]: the IC50 was 0.008 µg/mL (≈ 0.0138 µM) (L1210, 168 h, read-out: IC50, continuous incubation, continuous incubation, 7 days, L1210 colonies in agar) and more than 1 µg/mL (L1210, read-out: IC50, 1 h incubation, 1 h incubation, then 7 days, L1210 colonies in agar).

Regarding `C=CCN(C)[C@H]1C[C@H](O[C@H]2C[C@](O)(CC)[C@H](O)c3c(O)c4c(c(O)c32)C(=O)c2c(OC)cccc2C4=O)O[C@@H](C)[C@H]1O` [Compound 17, 7-O-(3'-N-Allyl-3'-N-methyl-alpha-L-daunosaminyl)-4-O-methyl-β-rhodomycinone], the IC50 under setting [3] was 0.036 µg/mL (≈ 0.0617 µM) and the half-inhibitory concentration (IC50) under setting [4] was more than 1 µg/mL.

For the molecule `CC[C@@]1(O)C[C@H](O[C@H]2C[C@H](N(C)CC(C)=O)[C@H](O)[C@H](C)O2)c2c(O)c3c(c(O)c2[C@H]1O)C(=O)c1cccc(O)c1C3=O` [Compound 18, 7-O-(3'-N-Acetonyl-3'-N-methyl-alpha-L-daunosaminyl)-β-rhodomycinone], the half-maximal inhibitory concentration (IC50) came out at 0.018 µg/mL (≈ 0.0307 µM) under setting [3] and 0.073 µg/mL (≈ 0.125 µM) under setting [4].
